The text below walks through data of ChEMBL document CHEMBL1144384, “Hypoxia-selective activation of 5-fluorodeoxyuridine prodrug possessing indolequinone structure: radiolytic reduction and cytotoxicity characteristics” (Bioorg Med Chem Lett, 2005).

pIC50: −log10 of the molar value.

The test is described as follows: Inhibitory concentration required to reduce cellular survival to 50% towards murine tumor EMT6/KU cell line. The class given is functional, cell-based. Conditions: Mus musculus.

For the compound `O=c1[nH]c(=O)n([C@H]2C[C@H](O)[C@@H](CO)O2)cc1F` [FLOXURIDINE], the pIC50 (as a rule, the negative decadic logarithm of the IC50, by convention in mol/L) is 5.09.
